Reference: US12454531B2, “Substituted piperazine derivatives useful as T cell activators” (BRISTOL-MYERS SQUIBB COMPANY, priority 2019, dated 2025)
Where two headings read alike, the source gives them in different places.

Columns and labels:
DGKα = DGKα (Homo sapiens (Human), UniProt P23743); test: Assay 2: In Vitro DGK Inhibition Assays, Method B (DGKα ADPGLO); type: biochemical; details: 150 μM ATP
Protocol: Assay 2: In Vitro DGK Inhibition Assays—Method B
The DGKα and DGKζ reactions were performed using either extruded liposome (DGKα and DGKζ LIPGLO assays) or detergent/lipid micelle substrate (DGKα and DGKζ assays). The reactions were carried out in 50 mM MOPS pH 7.5, 100 mM NaCl, 10 mM MgCl2, 1 μM CaCl2), and 1 mM DTT (assay buffer). The reactions using a detergent/lipid micelle substrate also contained 50 mM octyl B-D-glucopyranoside. The lipid substrate concentrations were 11 mM PS and 1 mM DAG for the detergent/lipid micelle reactions. The lipid substrate concentrations were 2 mM PS, 0.25 mM DAG, and 2.75 mM PC for the extruded liposome reactions (5 mM total lipid). The reactions were carried out in 150 μM ATP. The enzyme concentrations for the DGKα and DGKζ were nM.
The compound inhibition studies were carried out as follows: 25 nL droplets of each test compound (top concentration 10 mM with 11 point, 3-fold dilution series for each compound) solubilized in DMSO were transferred to wells of a white 1536 well plate (Corning 3725). A 5 mL enzyme/lipid substrate solution at 2× final reaction concentration was prepared by combining 2.5 mL 4× enzyme solution (20 nM DGKα or DGKζ (prepared as described below) in assay buffer) and 2.5 mL of either 4× liposome or 4× detergent/lipid micelle solution (compositions described below) and incubated at room temperature for 10 minutes. Next, 1 μL 2× enzyme/lipid substrate solution was added to wells containing the test compound and reactions were initiated with the addition of 1 μL 300 uM ATP. The reactions were allowed to proceed for 2 hr, after which 2 μL Glo Reagent (Promega V9101) was added and incubated for 40 minutes. Next, 4 μL Kinase Detection Reagent was added and incubated for 30 minutes. Luminescence was recorded using an EnVision microplate reader. […] The compounds were evaluated at 11 concentrations to determine IC50.
The detergent/lipid micelle was prepared by combining 15 g phosphatidylserine (Avanti 840035P) and 1 g diacylglycerol (8008110) and dissolving into 150 mL chloroform in a 2 L round bottom flask. Chloroform was removed under high vacuum by rotary evaporation. The resulting colorless, tacky oil was resuspended in 400 mL 50 mM MOPS pH 7.5, 100 mM NaCl, 20 mM NaF, 10 mM MgCl2, 1 μM CaCl2), 1 mM DTT, and 200 mM octyl glucoside by vigorous mixing. The lipid/detergent solution was split into 5 mL aliquots and stored at −80° C.
The lipid composition was 5 mol % DAG (Avanti 8008110), 40 mol % PS (Avanti 840035P), and 55 mol % PC (Avanti 850457) at a total lipid concentration of […] for the liposome solution. The PC, DAG, and PS were dissolved in chloroform, combined, and dried in vacuo to a thin film. The lipids were hydrated to 20 mM in 50 mM MOPS pH 7.5, 100 mM NaCl, 5 mM MgCl2, and were freeze-thawed five times. The lipid suspension was extruded through a 100 nm polycarbonate filter 10-12 times. Dynamic light scattering was carried out to confirm liposome size (50-60 nm radius). The liposome preparation was stored at 4° C. for as long as four weeks.
Human MA-hDGKα-(S9-S727)-Ct-TVMV-His-pFBgate and full length human DGK-ζ-transcript variant-2-TVMV-His-pFBgate baculovirus samples were generated using the Bac-to-Bac baculovirus expression system (Invitrogen) according to the manufacturer's protocol (note: MA- in name of DGKα reagents indicates two extra amino acids added prior to Ser-9). The DNA used for expression of the DGK-α(9-727) and DGK-C have SEQ ID NOs: 5 and 3, respectively. […]

Human whole blood pERK = test: Assay 11: DGK Human Whole Blood pERK Assay; type: cell-based; details: anti-CD3 stimulation, pERK positive within CD8 positive population, starting concentration 20 μM, read-out: DGK HWB pERK IC50
Protocol: Assay 11: DGK Human Whole Blood pERK Assay
Human whole blood ERK phosphorylation assay was performed with human venous whole blood obtained from healthy donors (drawn with Heparin as anti-coagulant). Serial dilutions of compounds (11 points, 3-fold) in DMSO were added to 384 well plates at 20 nL/well using an ECHO 550 acoustic dispenser (Labcyte) to achieve final starting concentration of 20 μM in assay. Heparinized human whole blood was added to the compound plate at 9 μL per well and incubated for one hour at 37° C. in a humidified 95%, air/5% CO2 incubator. After one hour of compound incubation, 1 μL of human anti-CD3 antibody (in-house) in the presence of cross-linking antibody goat anti-mouse IgG (4 μg/mL) was added to the well at 1 μg/mL final concentration for stimulation of pathway and additionally incubated for 15 minutes at 37° C. Stimulation was stopped by adding 90 μL Fix/Lyse buffer (BD 558049). Cells were washed and stained with anti-CD8 PE (BD 555635) antibodies for 60 minutes at room temperature, washed again, and permeabilized on ice using Perm III buffer (BD 558050) for 30 minutes. Cells were then stained with an Alexa Fluor® 647 anti-ERK1/2 Phospho (Thr202/Tyr204) Antibody (Bioleged 675504) for 60 minutes at 1:50 dilution. Samples were washed and resuspended in dPBS containing 1% BSA (dPBS, Gibco 14190136; BSA, Sigma-Aldrich A9205). Samples analyzed using the Intellicyt® iQue Screener PLUS. The pERK activation was quantitated by the percentage of pERK positive population within CD8 positive population.

Chain of DGKα (P23743 other isoform, or with tags, fused parts or gaps): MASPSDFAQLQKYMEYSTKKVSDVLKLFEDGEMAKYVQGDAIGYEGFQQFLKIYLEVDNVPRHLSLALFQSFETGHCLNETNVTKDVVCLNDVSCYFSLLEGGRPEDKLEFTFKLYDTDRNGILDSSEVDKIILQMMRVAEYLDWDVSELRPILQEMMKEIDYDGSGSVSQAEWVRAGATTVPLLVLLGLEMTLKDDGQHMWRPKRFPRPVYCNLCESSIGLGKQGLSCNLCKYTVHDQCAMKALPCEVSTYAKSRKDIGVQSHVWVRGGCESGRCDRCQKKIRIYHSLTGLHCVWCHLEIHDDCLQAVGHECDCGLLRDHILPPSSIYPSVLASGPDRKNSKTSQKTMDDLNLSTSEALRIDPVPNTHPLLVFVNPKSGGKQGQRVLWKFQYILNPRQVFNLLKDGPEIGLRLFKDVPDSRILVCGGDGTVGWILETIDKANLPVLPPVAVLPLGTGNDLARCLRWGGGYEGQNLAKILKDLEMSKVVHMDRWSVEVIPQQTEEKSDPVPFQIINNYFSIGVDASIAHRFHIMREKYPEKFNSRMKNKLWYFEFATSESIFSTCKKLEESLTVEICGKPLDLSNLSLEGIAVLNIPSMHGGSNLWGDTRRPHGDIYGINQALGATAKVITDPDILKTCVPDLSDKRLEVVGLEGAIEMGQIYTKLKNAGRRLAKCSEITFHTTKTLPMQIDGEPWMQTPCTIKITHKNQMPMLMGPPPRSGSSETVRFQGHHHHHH

Structure (SMILES) | IC50 (DGKα) [nM] | IC50 (Human whole blood pERK; Homo sapiens, CD8 positive) [nM] | IC50 (Human whole blood pERK) [nM]
CC[C@H]1CN(C(C(=O)N2CCOCC2)c2ccc(C(F)(F)F)cc2)[C@H](CC)CN1c1nc(=O)n(C)c2ccc(C#N)nc12 (single isomer, unassigned) [Example 53] | 1970 | 5530 | 
CC[C@H]1CN(C(C(=O)N2CCOCC2)c2ccc(C(F)(F)F)cc2)[C@H](CC)CN1c1nc(=O)n(C)c2ccc(C#N)nc12 (single isomer, unassigned) [Example 54] | 260 |  | 3510
CC[C@H]1CN(C(C(=O)NCCOC)c2ccc(C(F)(F)F)cc2)[C@H](CC)CN1c1nc(=O)n(C)c2ccc(C#N)nc12 (single isomer, unassigned) [Example 56] | 7500 | 300 | 
